Results reported in patent US11684701B2, “Operating room coating applicator and method” (Ethicon, Inc., priority 2018, dated 2023).

Experiments:
microorganism = settings: French Percuflex catheters dip-coated, sterilized with ethylene oxide, stored; for thirty days after being coated; cited from earlier work
Staphylococcus aureus = experiment: Zone of inhibition test of gentamicin-coated stainless steel coupon on agar plate; assay type: cell-based; settings: 4% gentamicin solution in water nebulized onto 0.5" polished 316 stainless steel coupon; incubated at 38° C. for 24 hours; initial S. aureus inoculum 10^5 bacteria per cubic centimeter
Description: A filter paper disk, or other object, impregnated with a particular antimicrobial agent is applied to an agar medium that is inoculated with the test organism. Where the anti-microbial agent diffuses through the medium, and as long as the concentration of the antimicrobial agent is above the MIC, none of the susceptible organism will grow on or around the disk for some distance. This distance is called a zone of inhibition. […] The diameter of the zone of inhibition is inversely proportional to the MIC.
A 4% gentamicin solution in water was applied to a 0.5″ polished 316 stainless steel coupon using the device described in FIGS. 3A and 3B according to the cycle described in FIG. 10. The stainless steel coupon was then incubated at 38° C. for 24 hours in an agar plate containing an initial Staphylococcus aureus inoculum of 10^5 bacteria per cubic centimeter of solution.

Compound	antimicrobial properties (zone of inhibition) (microorganism)	protective zone of inhibition formed around the coupon (Staphylococcus aureus)
Oc1cc(Cl)ccc1Oc1ccc(Cl)cc1Cl [2,4,4′-tricloro-2-hydroxydiphenyl ether]	produced a zone of inhibition	
gentamicin		approximately 8 mm
